According to PMC4684281, “Antitumor Effects and Mechanism of Novel Emodin Rhamnoside Derivatives against Human Cancer Cells In Vitro” (PLoS ONE, 2015):
Values joined by “and” are separate entries in the source; they are usually repeats but may differ in a detail not shown here. Identical values can stand only once. “Also recorded” adds a separate entry of the source. Like-named read-outs stand apart in the source and are kept apart here.

How the values were obtained:
Type in all cases: cell-based, Human
[1] = tested on: HepG2 cells; assay: MTT cell viability assay, HepG2; details: for IC50: HepG2
Description: (§1) The viability of cancer cells was evaluated by MTT assay. Briefly, cells were inoculated in 96-well culture plates at the density of 1×10^4/well with complete medium containing 10% fetal calf serum in a final volume of 0.2 mL. Cells were incubated at 37°C for at least 24 hours to allow optimal attachment. When the cells reached 60% confluence, they were treated with Cisplatin, HCPT and emodin rhamnopyranosides derivatives in various concentrations, and incubated in a humidity-controlled 5%CO2 incubator at 37°C for 72 hours. Medium were exchanged once every 24 hours. Cell control group and blank group were set up in the same manner, with each group having six parallel wells. Cell survival was assessed by directly adding 22 μL of 5mg/mL MTT to 0.2 mL medium. After three hours, the formazan precipitate was dissolved in 200μL isopropanol per well, and completely mixed under room temperature. Afterwards, the optical density of each well was detected at 570 nm wavelength by iMark microplate reader (Bio-rad,USA). This experiment was repeated at least three times.

[2] = tested on: HepG2 cells; assay: Morphological analysis (bright-field microscopy); details: HepG2, 0.1-62.5μM, 48 h, dose dependent
Description: For morphological observation, HepG2 cells in logarithmic growth phase were seeded in a 96-well plate at the density of 1×10^4/well with 0.2 mL complete medium containing 10% fetal calf serum. Cells were allowed to attach at 37°C for 24 hours. Then cells were treated with EM-d-Rha and HCPT at a specific concentration. Each group has six parallel wells. […] Medium were exchanged once every 24 hours.

[3] = tested on: HepG2 cells; assay: Fluorescence microscopy assay (Hoechst 33342); details: HepG2, varying concentrations (0.1μM; 0.5μM; 2.5μM), 48h, dosage-dependent
Description: HepG2 cells were inoculated in duplicate at 3×10^5/well density in 6-well plate, and allowed to attach at 37°C for 24 hours. Afterwards, cells were treated with 10 μM HCPT, 25 μM emodin and specific concentration EM-d-Rha (0.1μM, 0.5μM, 2.5μM), respectively. Cell control group was set in the same way. […] Medium were exchanged as described previously. In the end, all medium were discarded and cells were digested with 2mL 0.25% Trypsin-EDTA solution at 37°C for 5 min. After cells were harvested, cells were washed with PBS twice followed by centrifuging at 300×g for 5 minutes. Finally, cells were re-suspended in 100μL cold PBS after the supernatant was discarded. Cells were cultured in the dark for 10 minutes at room temperature after adding 100μL 1mg/mL Hoechst 33342 staining solution. Cells were harvested again as described previously to discard the staining solution. Wash the harvested cells twice with PBS before applying to the clean glass slides. The morphological changes of cells nuclei were observed and photographed under the fluorescence microscope (Olympus, Japan) at 350 nm excitation wavelength. The experiment was repeated three times.

[4] = tested on: OVCAR-3 cells; assay: MTT cell viability assay, OVCAR-3; details: for IC50: OVCAR-3
Description: as §1

[5] = tested on: OVCAR-3 cells; assay: Flow cytometry apoptosis analysis (Annexin V/7-AAD), OVCAR-3; details: 48h (Fig 8 legend: 72h); for Late apoptosis: control 4.87±1.42; for Early apoptosis: control 13.01±5.81; for Living cell: control 81.36±8.14
[6] = tested on: HepG2 mitochondrial membrane potential (ΔΨm); assay: Mitochondrial membrane potential (Rhodamine123, flow cytometry); details: HepG2, 5.0μM
Description: HepG2 cells were inoculated in 10cm diameter culture plates at a density of 5×10^5 cells, and allowed to attach at 37°C for 24 hours. Afterwards, cells were treated with 5.0μM EM-d-Rha for 0, 24h, 48h and 72h respectively. Cells were incubated in a humidified incubator supplied with 5% CO2 at 37°C for 72 hours. Medium were exchanged once every 24 hours. The harvested cells of each sample were suspended in 500μL PBS before adding 5 μL Rhodamine123. Then samples were incubated at 37°C in the dark for 15 min. Cells were again collected by centrifugation at 300×g for 5 minutes and the supernatant was discarded. The cell pellets were washed twice with 4°C PBS. Finally cells of all samples were resuspended in 500μL PBS. Before performing assay, adjusting excitation wavelength and emission wavelength to 480nm, 520nm respectively, the ΔΨm changes of HepG2 mitochondrial were measured with a flow cytometer (BD FACSCalibur, BD Biosciences, US). The experiment was repeated at least three times.

[7] = OVCAR-3, 10μM, listed as EM-d-Rha

CC(=O)O[C@@H]1[C@@H](O[C@@H]2O[C@@H](C)[C@H](O)[C@@H](OC(C)=O)[C@H]2OC(C)=O)[C@H](C)O[C@@H](Oc2cc(O)c3c(c2)C(=O)c2cc(C)cc(O)c2C3=O)[C@@H]1OC(C)=O [S-8, 3-(2”,3”-Di-O-acetyl-α-L-rhamnopyranosyl-(1→4)-2’,3’-di-O-acetyl-α-L-rhamnopyranosyl)-emodin]
Activity against HepG2 cells relative to comparators (dose-response curves) ([1]; HepG2 treated for three day, Fig 3, listed as EM-d-Rha): stronger in comparison to that of emodin; also recorded: inferior as compared to that of Cisplatin and HCPT | IC50 ([1]; Homo sapiens, MTT at 72h, n=3, mean±S.E.M, read-out: IC50 for EM-d-Rha, HepG2): 1810 ± 440 nM | IC50 ([1]; Homo sapiens, MTT, 72 hours, read-out: IC50 values, HepG2): 0.65 µg/mL | inhibition at 0.1 µM ([1]; Homo sapiens, HepG2, 0.1μM, MTT 72h, read-out: The inhibition rate of EM-d-Rha): 4.6 ± 5.04% | inhibition at 0.5 µM ([1]; Homo sapiens, HepG2, 0.5μM, MTT 72h, read-out: The inhibition rate of EM-d-Rha): 24.3 ± 6.54% | inhibition at 2.5 µM ([1]; Homo sapiens, HepG2, 2.5μM, MTT 72h, read-out: The inhibition rate of EM-d-Rha): 70.7 ± 3.54% | inhibition at 12.5 µM ([1]; Homo sapiens, HepG2, 12.5μM, MTT 72h, read-out: The inhibition rate of EM-d-Rha): 90.97 ± 0.72% | inhibition at 62.5 µM ([1]; Homo sapiens, HepG2, 62.5μM, MTT 72h, read-out: The inhibition rate of EM-d-Rha): 91.46 ± 0.46% | Decrease of IC50 compared to the IC50 of emodin, HepG2 ([1]; from Table 1): 19.68 fold | Cell morphology (bright-field) [2]: morphological changes of apoptosis such as reduction in cell volume and losing cell-cell contacts | Nuclear morphology, Hoechst 33342 [3]: nuclear shrinkage and DNA condensation | IC50 ([4]; Homo sapiens, MTT at 72h, n=3, mean±S.E.M, read-out: IC50 for EM-d-Rha, OVCAR-3): 2260 ± 920 nM | IC50 ([4]; Homo sapiens, MTT, 72 hours, read-out: IC50 values, OVCAR-3): 0.61 µg/mL | inhibition at 0.1 µM ([4]; Homo sapiens, OVCAR-3, 0.1μM, MTT 72h, read-out: The inhibition rate of EM-d-Rha): 1.4 ± 0.21% | inhibition at 0.5 µM ([4]; Homo sapiens, OVCAR-3, 0.5μM, MTT 72h, read-out: The inhibition rate of EM-d-Rha): 2.95 ± 1.12% | inhibition at 2.5 µM ([4]; Homo sapiens, OVCAR-3, 2.5μM, MTT 72h, read-out: The inhibition rate of EM-d-Rha): 66 ± 1.27% | inhibition at 12.5 µM ([4]; Homo sapiens, OVCAR-3, 12.5μM, MTT 72h, read-out: The inhibition rate of EM-d-Rha): 83.6 ± 1.15% | inhibition at 62.5 µM ([4]; Homo sapiens, OVCAR-3, 62.5μM, MTT 72h, read-out: The inhibition rate of EM-d-Rha): 90.64 ± 0.74% | Decrease of IC50 compared to the IC50 of emodin, OVCAR-3 ([4]; from Table 1): 42.3 fold | Late apoptosis ([5]; OVCAR-3, 2.5μM): 3.30±2.95% | Early apoptosis ([5]; OVCAR-3, 2.5μM): 70.60±23.06 % | Living cell ([5]; OVCAR-3, 2.5μM): 25.82±20.14 % | Late apoptosis ([5]; OVCAR-3, 5μM): 0.81±0.05 % | Early apoptosis ([5]; OVCAR-3, 5μM): 90.52±0.20 % | Living cell ([5]; OVCAR-3, 5μM): 8.60±0.19 % | Late apoptosis ([5]; OVCAR-3, 10μM): 0.35±0.06 % | Early apoptosis [5, 7]: 95.09% and 95.09±1.03 % | Living cell [5, 7]: 4.53% and 4.53±0.99 % | Percentage of ΔΨm (Vs. control group) ([6]; 24 h): 82.22±5.97 % | Percentage of ΔΨm (Vs. control group) ([6]; 48 h): 53.21±9.71 % | Percentage of ΔΨm (Vs. control group) ([6]; 72 h, listed as EM-d-Rha): 31.77±2.84%
